{
  "source": "patent US20240117431A1",
  "about": "“STEM-CELL BASED BIOMARKER DISCOVERY” (THE REGENTS OF THE UNIVERSITY OF CALIFORNIA, priority 2020, published 2024)",
  "system": "mutant TgUPRT (triple mutants 3×MT, M166A/A168G/Y228A and M166A/A168G/Y228G) in HEK293 cells",
  "assay": "In-cell RNA incorporation by mutant TgUPRT, streptavidin dot blot",
  "type": "cell-based, Toxoplasma gondii",
  "procedure": "Transfection, labeling of cellular RNA and RNA isolation: After 48h seeding, HEK293 cells were transfected with 2.5 μg of TgUPRT WT or mutant plasmids (pKN-CMV-TgUPRT-WT or -Mutt to Mut17) per 5 cm plate using JetPrime Transfection reagent (Polyplus Transfection, France). At 40h post-transfection, cells were incubated with a final concentration of 200 μM at <1% DMSO from 400 mM stock of uracil analogs (5EU, 5VU, 5AU) or 200 mM SAMU stock for 5 h. For time course study, HEK cells were treated with 200 μM uracil analogs for 0 h, 0.5, 1, 3, 5, 12 and 24 hours. For titrating uracil analog concentration experiments, HEK cells were treated with 0 (DMSO), 50, 100, 200, 500 μM or 1 mM uracil analog for 5h. Treated HEK cells were subjected to total RNA extraction using 1 mL Trizol Reagent (Invitrogen) following the manufacturer instructions.\nBiotinylation via CuAAC and IEDDA: Cu-mediated Azide-Alkyne cycloaddition (CuAAC) click reactions were performed in 50 μL reaction at 22° C. on a shaker for 30 min with click reaction cocktail containing 15 μg of total RNA, 1 mM biotin alkyne or biotin azide, fresh 4.6 mM THPTA to a final concentration of 1 mM, and fresh 10.6 mM sodium ascorbate (NaAsc) at final concentration of 1.77 mM, and 12 mM CuSO4 at final concentration of 200 μM in biotinylation reaction buffer (10 mM TrisHCI, 1 mM EDTA, pH7.4). The biotinylated RNA was purified using RNA clean & Concentrator-5 kit (Zymo Research, Cat #R1013) according to the manufacturer instructions and eluted in 21 μL of nuclease free water.\nInverse electron demand [4+2] Diels-Alder cycloaddition (IEDDA) click reactions were performed in 50 μL at 37° C. or 22° C. (RT) for 3h on mixer at 500 rpm containing 10-15 μg of total RNA, 1 mM final concentration of biotin-benzyl tetrazine (Sigma Aldrich, Cat #793329-5MG) in nuclease free water. Clicked total RNA was purified using RNA clean & Concentrator-5 kit (Zymo Research, Cat #R1013) according to the manufacturer instructions, and RNA was eluted in 21 μL of nuclease free water.\nHRP-streptavidin dot blot analysis: All gel reagents were from Bio-Rad. […]",
  "data": [
    {"smiles": "C=Cc1c[nH]c(=O)[nH]c1=O", "note": "[compound 2, 5-Vinylpyrimidine-2,4(1H,3H)-dione]", "values": [
      {"measurement": "analog incorporation over time with mutant TgUPRT enzymes", "setting": "200 μM time course to 24 h, in comparison to wild-type", "value": "much more robust over time"},
      {"measurement": "time at which analog incorporation was observed", "setting": "200 μM time course, dot blot, FIG. 9B", "value": 0.5, "unit": "hr"},
      {"measurement": "incorporation into RNA by triple mutants (3×MT)", "setting": "200 μM, 5 hours, HEK293T", "value": "robust incorporation"}
    ]}
  ]
}
